Measured values from paper PMC9381509, “In-vivo pharmacokinetic studies of Dolutegravir loaded spray dried Chitosan nanoparticles as milk admixture for paediatrics infected with HIV” (Scientific Reports, 2022).
Converted amounts (≈) assume the structure as drawn. Like-named read-outs stand apart in the source and are kept apart here.

What was measured:
[1] = set-up: method as in earlier work; details: mice, single oral administration as suspension, plasma; ref 27 (Lee et al.); cited from earlier work
[2] = Organ biodistribution of DTG in mice (HPLC); assay type: in vivo; details: mouse, Balb-C mice
From the text: (§1) After validating the developed HPLC method, the same was utilized to quantify the drug present in the plasma and organ (lungs, liver, kidney, heart, brain, and uterus) samples collected at predetermined time points. A total of 114 animals (25–30 g) were acquired from the Central Animal Facility (CAF), SASTRA University, Thanjavur after obtaining the ethical approval from Institutional Animal Ethics Committee (IAEC). The animals were randomly divided into four groups (n = 6) for this study. All animals were housed in individual cages in a temperature-controlled facility. The surgical procedures were approved by IAEC at SASTRA University (585/SASTRA/IAEC/RPP). The experiments were performed following the guidelines issued by the Committee for the Purpose of Control and Supervision of Experiments on animals (CPCSEA), Ministry of Environment and Forest, Government of India and Animal Research: Reporting of In Vivo Experiments (ARRIVE). The 2 groups of mice were orally treated with pure DTG and DTG-loaded Chitosan NPs at the dose equivalent to 10 mg/kg[41] along with milk. The 3rd group of animals was treated with DTG at the same dose through an intravenous route to elucidate the absolute bioavailability and the 4th group of animals was reserved as untreated control for comparison. The blood and organ samples were withdrawn from all the experimental mice at 0.5 h, 3.5 h, 7 h, 14 h, 21 h, and 28 h after euthanizing the animal using CO2 inhalation. The concentration of the drug in each sample was determined by the developed HPLC method, followed by the pharmacokinetic parameters and biodistribution pattern evaluation.

blood cells = assay: Haematological analysis (complete blood cell count) of treated animals; assay type: in vivo; details: Balb-C mice; for Basophils / Eosinophil / HCT / HGB / Lymphocyte / MCH / MCHC / MCV / MPV / Monocytes / Neutrophil / PCT / PDW / PLT / RBC / RDW-CV / RDW-SD / WBC: blood 28 h after administration
Procedure: The counting was made following the method of Beckman Coulter. It measures the changes in electrical resistance produced by non-conductive particles suspended in an electrolyte. The blood sample from the test animals was collected in EDTA tubes and was further suspended through a small orifice along with an electric current. At the sensing end, the suspended particle displaces its volume of electrolyte which was measured as the voltage pulse by the Beckman Coulter. The height of the voltage pulse in proportion to the volume of the blood cell. The white blood cells were quantified based on the VCS technology, where the individual cell volume (V), conductivity (C), and laser light scatter (S) were measured and the scattergram plotted the cell based on the above measurements.

[3] = In-vitro drug release in 0.1 N HCl media by dialysis bag method; assay type: physicochemical; details: 0.1 N HCl medium pH 1.2, dialysis bag, 37 °C
Procedure: The in vitro drug release study of the DTG-loaded Chitosan NPs was compared with the pure DTG in 0.1 N HCl pH 1.2 by dialysis bag method (Dialysis membrane Himedia, cut-off value—12–14 kDa). About 10 mg of pure drug and a similar dose equivalent amount of nanoparticles were taken for the drug release experiments. The test samples were mixed with 0.5 mL of the corresponding media, placed inside the dialysis bag, and immersed in 10 mL media in a vial. The temperature and magnetic stirring speed of the sample were retained at 37 °C ± 2 °C and 200 rpm, respectively throughout the 24 h study period. At every predetermined time point, the 10 mL samples were collected and immediately replaced with the fresh corresponding medium. The concentration of the drug in each sample was quantified by a UV–Visible spectrophotometer. The UV visible spectrophotometer (UV 1800, Shimadzu, Japan) was initialized with λmax of 260 nm. The absorbance of the test solution was recorded using the quartz cuvette (volume-3.5 mL, path length-1.5 cm) and the calculations were made based on the standard calibration curve by following the Beer Lamberts law. […] The drug release modelling was analysed using DD solver Software[36].

[4] = cited from earlier work
[5] = In vivo plasma pharmacokinetics in Balb-C mice (HPLC); details: for AUC(0-t): read-out: AUC0–24 h; for k el: read-out: Ke (converted)
From the text: The pharmaceutical grade working standards of Dolutegravir were obtained as a gift from MSN Laboratories Hyderabad, India. The standard calibration of the pure drug in the mobile phase (Water: Acetonitrile: Methanol in 20:40:40 ratio with 0.2% formic acid) and mice plasma was plotted using the developed method. The plasma samples of untreated normal Balb/c mice were obtained from the Central Animal Facility, SASTRA Deemed University (Approval ID: 585/IAEC/RPP), and the plasma samples were spiked with known concentrations (1, 2, 3, 4, 5 and 10 µg/mL) of DTG and allowed to incubate at room temperature for 15 min. The detection was carried out at 260 nm with an injection volume of 20 μL, wherein the flow rate of the mobile phase was maintained at 1.0 mL/min at the column temperature of 35 °C. Moreover, the validation of the analytical method was also performed in accordance with the procedure referred to in the International Council on Harmonization (ICH) guidelines.
as §1

[6] = mouse, plasma, 10 mg/kg, intravenous route
[7] = mouse, plasma, oral dose equivalent to 10 mg/kg along with milk
[8] = plasma, oral dose equivalent to 10 mg/kg along with milk

C[C@@H]1CCO[C@H]2Cn3cc(C(=O)NCc4ccc(F)cc4F)c(=O)c(O)c3C(=O)N12 [DTG, Dolutegravir]
Cmax [1]: 50000 ng/mL
AUC ([2]; brain, IV, 10 mg/kg, read-out: AUC of biodistribution of DTG in brain): 2400 ± 330 ng·h/mL
AUC ([2]; brain, oral with milk, 10 mg/kg equivalent, read-out: AUC of biodistribution of DTG in brain): 2600 ± 500 ng·h/mL
AUC ([2]; heart, IV, 10 mg/kg, read-out: AUC of biodistribution of DTG in heart): 2000 ± 380 ng·h/mL
AUC ([2]; heart, oral with milk, 10 mg/kg equivalent, read-out: AUC of biodistribution of DTG in heart): 2100 ± 400 ng·h/mL
AUC ([2]; kidney, IV, 10 mg/kg, read-out: AUC of biodistribution of DTG in kidney): 3800 ± 1300 ng·h/mL
AUC ([2]; kidney, oral with milk, 10 mg/kg equivalent, read-out: AUC of biodistribution of DTG in kidney): 2200 ± 400 ng·h/mL
AUC ([2]; liver, IV, 10 mg/kg, read-out: AUC of biodistribution of DTG in liver): 4600 ± 1200 ng·h/mL
AUC ([2]; liver, oral with milk, 10 mg/kg equivalent, read-out: AUC of biodistribution of DTG in liver): 7200 ± 1400 ng·h/mL
AUC ([2]; lungs, IV, 10 mg/kg, read-out: AUC of biodistribution of DTG in lungs): 4300 ± 680 ng·h/mL
AUC ([2]; lungs, oral with milk, 10 mg/kg equivalent, read-out: AUC of biodistribution of DTG in lungs): 2500 ± 400 ng·h/mL
AUC ([2]; uterus, IV, 10 mg/kg, read-out: AUC of biodistribution of DTG in uterus): 5500 ± 1200 ng·h/mL
AUC ([2]; uterus, oral with milk, 10 mg/kg equivalent, read-out: AUC of biodistribution of DTG in uterus): 1500 ± 400 ng·h/mL
Basophils (blood cells; IV): 0.01 ± 0.02 10^3/µL
Eosinophil (blood cells; IV): 0.06 ± 0.08 10^3/µL
HCT (blood cells; IV): 55.83 ± 17.67%
HGB (blood cells; IV): 13.70 ± 2.95 g/dL
Lymphocyte (blood cells; IV): 12.83 ± 8.46 10^3/µL
MCH (blood cells; IV): 16.23 ± 1.46 pg
MCHC (blood cells; IV): 25.27 ± 3.33 g/dL
MCV (blood cells; IV): 64.47 ± 2.75 fL
MPV (blood cells; IV): 6.03 ± 0.15 fL
Monocytes (blood cells; IV): 0.10 ± 0.07 10^3/µL
Neutrophil (blood cells; IV): 5.15 ± 1.74 10^3/µL
PCT (blood cells; IV): 0.50 ± 0.18%
PDW (blood cells; IV): 15.23 ± 0.32
PLT (blood cells; IV): 617.00 ± 27.89 10^3/µL
RBC (blood cells; IV): 8.60 ± 2.47 10^6/µL
RDW-CV (blood cells; IV): 15.37 ± 1.11%
RDW-SD (blood cells; IV): 40.60 ± 4.25 fL
WBC (blood cells; IV): 18.14 ± 10.24 10^3/µL
Basophils (blood cells; oral with milk): 0.00 10^3/µL
Eosinophil (blood cells; oral with milk): 0.04 ± 0.03 10^3/µL
HCT (blood cells; oral with milk): 63.77 ± 1.96%
HGB (blood cells; oral with milk): 15.10 ± 0.72 g/dL
Lymphocyte (blood cells; oral with milk): 12.30 ± 1.67 10^3/µL
MCH (blood cells; oral with milk): 15.57 ± 0.15 pg
MCHC (blood cells; oral with milk): 23.67 ± 0.15 g/dL
MCV (blood cells; oral with milk): 65.90 ± 4.10 fL
MPV (blood cells; oral with milk): 5.97 ± .06 fL
Monocytes (blood cells; oral with milk): 0.15 ± 0.06 10^3/µL
Neutrophil (blood cells; oral with milk): 5.32 ± 1.71 10^3/µL
PCT (blood cells; oral with milk): 0.52 ± 0.07%
PDW (blood cells; oral with milk): 15.17 ± 0.15
PLT (blood cells; oral with milk): 674.67 ± 42.91 10^3/µL
RBC (blood cells; oral with milk): 9.69 ± 0.48 10^6/µL
RDW-CV (blood cells; oral with milk): 15.47 ± 1.58%
RDW-SD (blood cells; oral with milk): 41.73 ± .90 fL
WBC (blood cells; oral with milk): 17.81 ± 3.38 10^3/µL
toxicity to the blood cells (haematology versus untreated control) (blood cells; oral and IV administration, no statistically significant difference to control): non-toxic to the blood cells
time taken to release 80% of the drug (T80) [3]: 20 h
aqueous solubility ([4]; 25 °C, no ref printed at the value): 95 µg/mL (≈ 227 µM)
BCS class ([4]; ref not given): BCS class II
Cmax ([5]; Balb-C, mouse, plasma, iv, 10 mg/kg, plasma, 10 mg/kg, intravenous route, read-out: Cmax): 29300 ± 4010 ng/mL
Cmax ([5]; Balb-C, mouse, plasma, po, 10 mg/kg, plasma, oral dose equivalent to 10 mg/kg along with milk, read-out: Cmax): 29300 ± 4010 ng/mL
MRT [5, 6]: 12.07 ± 0.05 h
Tmax [5, 6]: 7 h
half-life [5, 6]: 10.5 ± 1.1 h
AUC(0-t) [5, 6]: 411000 ± 91000 ng·h/mL
clearance ([5]; mouse, plasma, 10 mg/kg, intravenous route, read-out: Clearance (converted)): 8.17 mL/min
k el [5, 6]: 1.81e-05 s⁻¹
Vd ([5]; mouse, plasma, 10 mg/kg, intravenous route, read-out: Vd): 1.87 ± 0.81 L/kg
AUC ([5]; mouse, plasma, 10 mg/kg, oral): 405000 ± 7000 ng·h/mL
MRT [5, 7]: 10.1 ± 0.93 h
Tmax [5, 7]: 7 h
half-life [5, 7]: 11.7 ± 1.6 h
AUC(0-t) [5, 7]: 405000 ± 7000 ng·h/mL
k el [5, 7]: 1.64e-05 s⁻¹
volume of distribution (Vd) ([5]; orally administered): 4.36 ± 0.78 L
Ka ([5]; plasma, 10 mg/kg, intravenous route): 0.26 h⁻¹
Cmax [5, 8]: 30150 ± 8060 ng/mL
Ka [5, 8]: 0.48 h⁻¹
Vd [5, 8]: 4.36 ± 0.78 L/kg
clearance [5, 8]: 8 ± 5.5 mL/min
